Experiments:
[1] = test system: VLDL; conditions: peptide interacting with VLDL; cited from earlier work
[2] = test system: Apo E null mice; assay: Study One: plasma markers of oxidative stress (ROS, PON activity) in Apo E null mice; format: in vivo
Procedure: (§1) The mice were fed a Western diet for 6 weeks to elevate cholesterol. The animals were then switched to a chow diet for two weeks after which they were treated with peptide or saline for 4 weeks. Treatment was then withdrawn for 4 weeks while the animals remained on a chow diet. After the 4 week post treatment phase, the mice were euthanized and tissue dissection and sample collection was performed.
(§2) Blood was drawn after 4 weeks of treatment at week 26 and analyzed for cholesterol. […] However, Apo E mimetic treatment did improve plasma marker of oxidative stress, such as ROS and PON activity. […] Because ROS have been implicated in the pathogenesis of atherosclerosis, the decrease in ROS by treatment with an Apo E mimetic is beneficial.
The PON gene family has anti-atherosclerotic effects, such as preventing oxidation of LDLs. Thus, the increase in PON activity in hE18A treated mice is beneficial in the atherosclerosis animal model.
(§3) The mice were euthanized at week 30, which is four weeks post treatment with Apo E mimetic.

[3] = test system: cells; conditions: peptide-associated VLDL, absence of apoE; cited from earlier work
[4] = test system: Apo E −/− mice; assay: Study Two: plaques in the aorta of Apo E -/- mice; format: in vivo; conditions: 5 mg/kg
Procedure: (§4) The mice were fed a lard diet for seven weeks and then were switched to a chow diet for four weeks. The mice were treated two times a week for four weeks and then treatment was withdrawn for four weeks. Termination 1 represents the time point immediately following termination of the Apo E mimetic treatment. Termination 2 represents the time point immediately following the four weeks of treatment withdrawal. Lipids were analyzed in the plasma (cholesterol, triglycerides) and in the liver (cholesterol esters, unesterified cholesterol, triglycerides).

[5] = test system: Apo E −/− mice; assay: Study Two: plasma and liver lipids in Apo E -/- mice; format: in vivo; conditions: four weeks after cessation of treatment
Procedure: as §4

[6] = test system: Apo E null mice; assay: Study One: plasma cholesterol and triglycerides in Apo E null mice; format: in vivo
Procedure: as §1, §2, §3

[7] = test system: Apo E null mice; assay: Study One: atherosclerotic lesions (en face aorta, aortic sinus, macrophage coverage) in Apo E null mice; format: in vivo
Procedure: as §1, §3

[8] = test system: MEF 1 cells; conditions: MEF 1 cells with induced LDL receptors; cited from earlier work
[9] = four weeks after the end of treatment
[10] = 4 weeks post treatment (study termination)

Substance: Ac-D-W-L-K-A-F-Y-D-K-V-A-E-K-L-K-E-A-F-NH2 (Ac-DWLKAFYDKVAEKLKEAF-NH2) [Ac-18A-NH2, control peptide, reference compound]
- displacement of apo E from VLDL [1]: displacement of apo E from VLDL

Substance: Ac-LRKLRKRLLRDWLKAFYDKVAEKLKEAF-NH2 [Ac-hE18A-NH2, end protected analog of hE-18A]
- PON-1 levels in HDL fractions ([2]; Apo E null mice, HDL fractions 29-32): dramatic increase
- enhancement of degradation of VLDL compared to VLDL alone [3]: three
- enhancement of uptake of VLDL compared to VLDL alone [3]: six
- displacement of apo E from VLDL [1]: displacement of apo E from VLDL
- decrease of atherosclerotic lesions in the thoracic aorta [4]: about 50%
- reduction of lesions in the aortic arch ([4]; at the end of treatment): about 35%
- cholesterol levels [5]: about 650 mg/dl

Substance: LRKLRKRLLRDWLKAFYDKVAEKLKEAF (ApoE mimetic) [hE18A]
- plasma cholesterol levels ([6]; end of 4 weeks of treatment, compared to mR18L and saline): better in reducing plasma cholesterol levels
- cholesterol levels [6, 9]: not significantly different
- PON-1 activity ([2]; 4 weeks post treatment, over saline and mR18L): still increased
- reactive oxygen species (ROS) ([2]; after 4 weeks of treatment, compared to saline): significant decrease
- paraoxonase (PON) activity ([2]; after 4 weeks of treatment, compared to saline and mR18L): significant increase
- ROS levels [2, 9]: not significantly different
- atherosclerotic lesion area in the aortic sinus [7, 10]: significantly decreased
- macrophage coverage of the aortic sinus [7, 10]: non-significant trend towards a decrease
- atherosclerotic lesion area (en face aorta) ([7]; 4 weeks post treatment, compared to saline or mR18L): significantly reduced

Substance: LRKMRKRLMR-18A [Ac-mE-18A-NH2]
- enhancement of LDL internalization [8]: three

Substance: LRRLRRRLLR-18A [Ac-hE(R)-18A-NH2]
- enhancement of LDL internalization [8]: seven
